Among the test systems are 786-0; A549; CAKI-1; HOP-62; HOP-92; IGROV-1; KM12; LOX IMVI; MDA-MB-231; Malme-3M; NCI-H522; OVCAR-4; PC-3; RPMI-8226; SK-MEL-5; SR; T47D; UACC-257; UACC-62; SF-295.
What all share (assay): NCI anticancer screen, dose series, 48 h

Structures are written as SMILES. Structures can show the parent of a compound that is named as a salt.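 Method: 48-hour compound exposure of cells in 96-well plates, five concentrations, linear interpolation of endpoints. At the GI50, growth is halved.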 The source made the active and inactive calls. Cut-off read from the data, not from the text of the source: active = GI50 up to about 1.1 µM and inactive = higher.

As to `Cc1cccc(N(CCC#N)S(=O)(=O)c2ccccc2)c1`, the GI50 in the assay with 786-0, with A549, with CAKI-1, in the assay on HOP-62, with HOP-92 and in the assay with IGROV-1 was > 100 µM (inactive) in each case. In addition, the GI50 with KM12, with LOX IMVI, in the assay on MDA-MB-231, in the assay with Malme-3M, in the assay on NCI-H522 and in the assay on OVCAR-4 was > 100 µM (inactive) each time. The GI50 is > 100 µM (inactive) with PC-3; > 100 µM (inactive) in the assay with RPMI-8226; 69 µM (inactive) in the assay with SK-MEL-5; > 100 µM (inactive) in the assay with SR; > 100 µM (inactive) in the assay on T47D; > 100 µM (inactive) in the assay on UACC-257. The GI50 in the assay on UACC-62 is > 100 µM (inactive).

Consider `NC1CC(=O)c2c(Cl)sc(Cl)c21` (centres undefined), for which the GI50 with 786-0 was 1.41 µM (inactive); in the assay with A549 it was 12.7 µM (inactive); in the assay with CAKI-1 it was 2.7 µM (inactive); in the assay on HOP-62 it was 10.7 µM (inactive); in the assay with HOP-92, 1.47 µM (inactive); with IGROV-1, 4.12 µM (inactive). In addition, the GI50 is 3.06 µM (inactive) in the assay on KM12; 1.51 µM (inactive) with LOX IMVI; 2.19 µM (inactive) in the assay with MDA-MB-231; 2.22 µM (inactive) with Malme-3M; 1.48 µM (inactive) with NCI-H522; 6.44 µM (inactive) with OVCAR-4. Further, the GI50 is 6.21 µM (inactive) in the assay with PC-3; 2.37 µM (inactive) in the assay with RPMI-8226; 14 µM (inactive) in the assay with SF-295; 8.79 µM (inactive) in the assay on SK-MEL-5; 0.493 µM (active) in the assay on SR; 1.74 µM (inactive) in the assay with T47D. The GI50 is 3.16 µM (inactive) with UACC-257 and 2.64 µM (inactive) in the assay on UACC-62.

As for `COc1c(/C=C/C=O)cc2c(c1OC)OCO2`, the GI50 is 54.1 µM (inactive) in the assay with 786-0; > 100 µM (inactive) with A549; 5.21 µM (inactive) in the assay on CAKI-1; 25.5 µM (inactive) in the assay on HOP-62; 61.5 µM (inactive) with HOP-92; 22.8 µM (inactive) in the assay on IGROV-1. For the same molecule, the GI50 is 12 µM (inactive) with KM12; 24.5 µM (inactive) in the assay on LOX IMVI; 31.6 µM (inactive) with MDA-MB-231; 20.7 µM (inactive) with Malme-3M; 78.3 µM (inactive) in the assay on NCI-H522; 16.6 µM (inactive) in the assay with OVCAR-4. The GI50 with PC-3 is 34.5 µM (inactive); in the assay on RPMI-8226 it was 14.3 µM (inactive); in the assay with SF-295, 21.2 µM (inactive); in the assay with SK-MEL-5, 21.1 µM (inactive); in the assay on SR, 12.9 µM (inactive); with T47D, 23.3 µM (inactive). Also, the GI50 in the assay on UACC-257 was 48.1 µM (inactive); with UACC-62, 19.3 µM (inactive).

For the molecule `CC(=O)Nc1c(S(=O)(=O)c2ccccc2)c(C)c(C)n1CCN(C)C`, the GI50 in the assay on 786-0, with A549, with CAKI-1, in the assay with HOP-92, in the assay on IGROV-1 and in the assay with KM12 was > 100 µM (inactive) each time. Further, the GI50 in the assay on MDA-MB-231, with Malme-3M, in the assay with NCI-H522, with OVCAR-4, in the assay on PC-3 and in the assay with RPMI-8226 was > 100 µM (inactive) throughout. Moreover, the GI50 in the assay on SF-295, with SK-MEL-5, in the assay on SR, in the assay on T47D, in the assay on UACC-257 and in the assay on UACC-62 was > 100 µM (inactive) each time.

For `C[C@@H]1S[C@H](c2c(Cl)cccc2Cl)N2Cc3ccccc3N=C12`, the GI50 with 786-0, in the assay with A549, with CAKI-1, with HOP-62, in the assay with HOP-92 and with IGROV-1 was > 100 µM (inactive) each time. The GI50 in the assay with KM12 was 85.5 µM (inactive); in the assay on LOX IMVI, > 100 µM (inactive); in the assay with MDA-MB-231, > 100 µM (inactive); in the assay on OVCAR-4, > 100 µM (inactive); in the assay on PC-3, > 100 µM (inactive); in the assay with RPMI-8226, > 100 µM (inactive). Besides, the GI50 in the assay on SF-295 was > 100 µM (inactive); in the assay on SK-MEL-5, > 100 µM (inactive); in the assay on SR, > 100 µM (inactive); in the assay with T47D it was > 100 µM (inactive); in the assay on UACC-257 it was > 100 µM (inactive); in the assay on UACC-62, 97.3 µM (inactive).

Turning to `CSc1c(C#N)c(O)n(-c2ccc(C)cc2)c(=O)c1C#N`, the GI50 in the assay on 786-0, in the assay with A549, with CAKI-1, with HOP-92, in the assay on IGROV-1 and in the assay on KM12 was > 100 µM (inactive) throughout. Also, the GI50 in the assay with LOX IMVI, with MDA-MB-231, with Malme-3M, in the assay with NCI-H522, in the assay with OVCAR-4 and in the assay on PC-3 was > 100 µM (inactive) throughout. For the same molecule, the GI50 with RPMI-8226, in the assay with SK-MEL-5, in the assay on SR, with T47D, with UACC-257 and with UACC-62 was > 100 µM (inactive) each time.

Consider `COC(=O)C[C@H](COCc1ccccc1)NC(=O)C[C@H](COCc1ccccc1)NC(=O)C[C@H](COCc1ccccc1)NC(=O)OC(C)(C)C`, for which the GI50 in the assay with 786-0 is 18 µM (inactive); in the assay with A549, 38.5 µM (inactive); in the assay on CAKI-1, > 100 µM (inactive); in the assay on HOP-62 it was 16.9 µM (inactive); with HOP-92, 24.8 µM (inactive); in the assay on IGROV-1, > 100 µM (inactive). For the same molecule, the GI50 in the assay on KM12 was > 100 µM (inactive); with LOX IMVI it was 58.7 µM (inactive); in the assay with MDA-MB-231, 81.8 µM (inactive); in the assay with Malme-3M, > 100 µM (inactive); in the assay on NCI-H522, 78 µM (inactive); in the assay on OVCAR-4 it was 3.97 µM (inactive). For the same molecule, the GI50 is 13.2 µM (inactive) in the assay on PC-3; > 100 µM (inactive) in the assay on RPMI-8226; 88.9 µM (inactive) in the assay on SF-295; > 100 µM (inactive) in the assay on SK-MEL-5; 35.3 µM (inactive) in the assay on SR; 24.7 µM (inactive) with T47D. For the same molecule, the GI50 with UACC-62 is > 100 µM (inactive).

Take `CNNCc1ccc(C(=O)NC(C)C)cc1` [PROCARBAZINE HYDROCHLORIDE]: the GI50 with 786-0 was 254 µM (inactive); in the assay on A549 it was 335 µM (inactive); in the assay on HOP-62, 383 µM (inactive); in the assay with HOP-92, 369 µM (inactive); with IGROV-1, > 404 µM (inactive); in the assay on KM12, > 500 µM (inactive). Besides, the GI50 was > 486 µM (inactive) in the assay on LOX IMVI; > 500 µM (inactive) with MDA-MB-231; > 457 µM (inactive) with Malme-3M; > 500 µM (inactive) in the assay with NCI-H522; > 500 µM (inactive) in the assay with OVCAR-4; > 500 µM (inactive) with PC-3. Moreover, the GI50 with RPMI-8226 is 465 µM (inactive); in the assay on SF-295, > 500 µM (inactive); with SK-MEL-5 it was 385 µM (inactive); with SR, > 375 µM (inactive); in the assay on T47D, > 500 µM (inactive); in the assay on UACC-257 it was 450 µM (inactive). Also, the GI50 with UACC-62 is 366 µM (inactive).

For the molecule `COC(=O)c1c2c(cc3c1CC1(C3)Cc3cc4c(c(C(=O)OC)c3C1)CCC4)CCC2`, the GI50 with 786-0, in the assay with A549, in the assay on HOP-62, in the assay on HOP-92, with IGROV-1 and in the assay on KM12 was > 100 µM (inactive) in each case. Further, the GI50 in the assay on LOX IMVI is > 100 µM (inactive); in the assay with MDA-MB-231 it was > 100 µM (inactive); in the assay on Malme-3M, > 100 µM (inactive); with NCI-H522, > 100 µM (inactive); with OVCAR-4, 86.9 µM (inactive); in the assay with PC-3 it was > 100 µM (inactive). The GI50 in the assay on RPMI-8226 was > 100 µM (inactive); with SF-295, > 100 µM (inactive); in the assay on SK-MEL-5 it was > 100 µM (inactive); with SR, 30.7 µM (inactive); with T47D, > 100 µM (inactive); in the assay with UACC-257 it was > 100 µM (inactive). In the assay with UACC-62, the GI50 was 55.8 µM (inactive).

For `C[n+]1cn(-c2ccc([N+](=O)[O-])cn2)c2ccccc21`, the GI50 in the assay with 786-0, in the assay on A549, in the assay with CAKI-1, in the assay on HOP-62, in the assay on HOP-92 and with IGROV-1 was > 100 µM (inactive) in each case. Also, the GI50 with KM12, in the assay with LOX IMVI, with MDA-MB-231, in the assay on Malme-3M, with OVCAR-4 and with PC-3 was > 100 µM (inactive) each time. For the same molecule, the GI50 in the assay with RPMI-8226, with SF-295, with SK-MEL-5, with SR, with T47D and in the assay with UACC-257 was > 100 µM (inactive) throughout. For the same molecule, the GI50 with UACC-62 was > 100 µM (inactive).

(Values after ChEMBL document CHEMBL1201862, “PubChem BioAssay data set” (2004).)
